Where “and” joins values, the source holds several entries; their conditions need not be identical. Equal values may be shown once. Toxic doses and inconclusive results are not listed.
Test system: BDF1 mice, B16 melanoma ip, median survival T/C
Test: NCI In Vivo Anticancer Drug Screen. Data for tumor model B16 Melanoma (intraperitoneal) in B6D2F1 (BDF1) mice
Conditions: endpoint: median survival time, higher = longer survival
In short: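 Read-out: survival or tumor size, given as treated/control ratio. Controls received vehicle only; animals bore transplantable tumors.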

[1] = dose: 100.0 mg/kg/injection, schedule: Q01DX009 (ip), vehicle: saline with Tween-80
[2] = dose: 50.0 mg/kg/injection, schedule: Q01DX009 (ip), vehicle: saline
[3] = dose: 100.0 mg/kg/injection, schedule: Q01DX009 (ip), vehicle: saline
[4] = dose: 5.0 mg/kg/injection, schedule: Q01DX009 (ip), vehicle: Klucel (hydroxypropylcellulose) (HPC)
[5] = dose: 12.5 mg/kg/injection, schedule: Q01DX009 (ip), vehicle: Klucel (hydroxypropylcellulose) (HPC)
[6] = dose: 25.0 mg/kg/injection, schedule: Q01DX009 (ip), vehicle: Klucel (hydroxypropylcellulose) (HPC)
[7] = dose: 50.0 mg/kg/injection, schedule: Q01DX009 (ip), vehicle: Klucel (hydroxypropylcellulose) (HPC)

O=NN(CCCl)C(=O)NC1CCC(=O)NC1=O (centres undefined)
T/C (dose: 0.09 mg/kg/injection, schedule: Q01DX009 (ip), vehicle: saline): 114 % of control | T/C (dose: 0.18 mg/kg/injection, schedule: Q01DX009 (ip), vehicle: saline): 111 % of control | T/C (dose: 0.35 mg/kg/injection, schedule: Q01DX009 (ip), vehicle: saline): 118 % of control | T/C (dose: 0.7 mg/kg/injection, schedule: Q01DX009 (ip), vehicle: saline): 114 % of control | T/C (dose: 1.0 mg/kg/injection, schedule: Q01DX009 (ip), vehicle: saline with Tween-80): 119 % of control | T/C (dose: 1.1 mg/kg/injection, schedule: Q01DX009 (ip), vehicle: saline): 152 % of control | T/C (dose: 1.6 mg/kg/injection, schedule: Q01DX009 (ip), vehicle: saline): 165 % of control | T/C (dose: 2.0 mg/kg/injection, schedule: Q01DX009 (ip), vehicle: saline with Tween-80): 161 % of control | T/C (dose: 4.0 mg/kg/injection, schedule: Q01DX009 (ip), vehicle: saline with Tween-80): 193 % of control | T/C (dose: 7.5 mg/kg/injection, schedule: Q01DX001 (ip), vehicle: saline + alcohol): 166 % of control | T/C (dose: 8.0 mg/kg/injection, schedule: Q01DX009 (ip), vehicle: saline with Tween-80): 123 % of control | T/C (dose: 15.0 mg/kg/injection, schedule: Q01DX001 (ip), vehicle: saline + alcohol): 245 % of control | T/C (dose: 16.0 mg/kg/injection, schedule: Q01DX009 (ip), vehicle: saline with Tween-80): 93 % of control

NCc1c(Cl)c(Cl)c(CN)c(Cl)c1Cl
T/C (dose: 25.0 mg/kg/injection, schedule: Q01DX009 (ip), vehicle: saline with Tween-80): 100 % of control | T/C (dose: 50.0 mg/kg/injection, schedule: Q01DX009 (ip), vehicle: saline with Tween-80): 102 % of control | T/C [1]: 100 % of control

C/C=C(/C)C(=O)O[C@H]1CC[N+]2([O-])CC=C(COC(=O)[C@@](O)([C@H](C)OC)C(C)(C)O)[C@H]12 (some centres undefined)
T/C (dose: 25.0 mg/kg/injection, schedule: Q01DX009 (ip), vehicle: saline): 95 % of control | T/C [2]: 97 % of control | T/C [3]: 107 % of control | T/C (dose: 200.0 mg/kg/injection, schedule: Q01DX009 (ip), vehicle: saline): 100 % of control

Cc1nn(C2CC(O)C(O)C(CO)O2)c(=O)[nH]c1=O (centres undefined)
T/C [2]: 95 % of control | T/C [3]: 86 % of control | T/C (dose: 400.0 mg/kg/injection, schedule: Q01DX009 (ip), vehicle: saline): 86 % of control

CCOc1ccc(C(C)c2cc3c(cc2OC)OCO3)cc1 (centres undefined)
T/C (dose: 12.5 mg/kg/injection, schedule: Q01DX009 (ip), vehicle: distilled water + Tween-80): 114 % of control | T/C (dose: 25.0 mg/kg/injection, schedule: Q01DX009 (ip), vehicle: distilled water + Tween-80): 113 % of control

OC(C1CO1)C(O)C1CO1 (centres undefined)
T/C (dose: 0.12 mg/kg/injection, schedule: Q01DX009 (ip), vehicle: saline): 118 % of control | T/C (dose: 0.13 mg/kg/injection, schedule: Q03HX024 (ip), vehicle: saline): 114 % of control | T/C (dose: 0.25 mg/kg/injection, schedule: Q01DX009 (ip), vehicle: saline): 104 % of control and 107 % of control and 110 % of control | T/C (dose: 0.25 mg/kg/injection, schedule: Q03HX008 (ip), vehicle: saline): 123 % of control | T/C (dose: 0.25 mg/kg/injection, schedule: Q03HX016 (ip), vehicle: saline): 120 % of control | T/C (dose: 0.5 mg/kg/injection, schedule: Q01DX005 (ip), vehicle: saline): 113 % of control | T/C (dose: 0.5 mg/kg/injection, schedule: Q03HX008 (ip), vehicle: saline): 120 % of control | T/C (dose: 1.0 mg/kg/injection, schedule: Q01DX005 (ip), vehicle: saline): 119 % of control | T/C (dose: 1.0 mg/kg/injection, schedule: Q03HX016 (ip), vehicle: saline): 152 % of control | T/C (dose: 1.0 mg/kg/injection, schedule: Q03HX024 (ip), vehicle: saline): 172 % of control | T/C (dose: 2.0 mg/kg/injection, schedule: Q01DX005 (ip), vehicle: saline): 153 % of control | T/C (dose: 2.0 mg/kg/injection, schedule: Q03HX008 (ip), vehicle: saline): 160 % of control | T/C (dose: 2.0 mg/kg/injection, schedule: Q03HX016 (ip), vehicle: saline): 214 % of control | T/C (dose: 4.0 mg/kg/injection, schedule: Q01DX001 (ip), vehicle: saline): 158 % of control | T/C (dose: 4.0 mg/kg/injection, schedule: Q01DX005 (ip), vehicle: saline): 192 % of control | T/C (dose: 4.0 mg/kg/injection, schedule: Q01DX009 (ip), vehicle: saline sonified): 184 % of control | T/C (dose: 4.0 mg/kg/injection, schedule: Q08DX002 (ip), vehicle: saline): 158 % of control | T/C (dose: 8.0 mg/kg/injection, schedule: Q01DX001 (ip), vehicle: saline): 204 % of control | T/C (dose: 8.0 mg/kg/injection, schedule: Q04DX003 (ip), vehicle: saline): 171 % of control | T/C (dose: 8.0 mg/kg/injection, schedule: Q08DX002 (ip), vehicle: saline): 208 % of control

CCC[CH2][Sn]([CH2]CCC)[CH2]CCC.CCC[CH2][Sn]([CH2]CCC)[CH2]CCC
T/C [4]: 109 % of control

O=c1[nH]c2c(ccc3cnccc32)c2c1CCC2
T/C (dose: 3.12 mg/kg/injection, schedule: Q01DX009 (ip), vehicle: suspension in saline): 97 % of control | T/C (dose: 6.25 mg/kg/injection, schedule: Q01DX009 (ip), vehicle: suspension in saline): 104 % of control

N#CCc1ccccc1C(=O)O
T/C (dose: 100.0 mg/kg/injection, schedule: Q04DX003 (ip), vehicle: gum acacia): 97 % of control

N#CCCC1C2CCC(C2)C1C#N (centres undefined)
T/C [4]: 112 % of control | T/C (dose: 10.0 mg/kg/injection, schedule: Q01DX009 (ip), vehicle: Klucel (hydroxypropylcellulose) (HPC)): 95 % of control

COc1cc(OC)c(NC(=O)c2ccccc2Cl)cc1Cl
T/C (dose: 100.0 mg/kg/injection, schedule: Q01DX009 (ip), vehicle: Klucel (hydroxypropylcellulose) (HPC)): 97 % of control | T/C (dose: 200.0 mg/kg/injection, schedule: Q01DX009 (ip), vehicle: Klucel (hydroxypropylcellulose) (HPC)): 102 % of control | T/C (dose: 400.0 mg/kg/injection, schedule: Q01DX009 (ip), vehicle: Klucel (hydroxypropylcellulose) (HPC)): 102 % of control

Cc1cccc(CN2CCN(C(c3ccccc3)c3ccc(Cl)cc3)CC2)c1 (centres undefined)
T/C (dose: 3.12 mg/kg/injection, schedule: Q04DX003 (ip), vehicle: Klucel (hydroxypropylcellulose) (HPC)): 97 % of control | T/C (dose: 6.25 mg/kg/injection, schedule: Q04DX003 (ip), vehicle: Klucel (hydroxypropylcellulose) (HPC)): 101 % of control | T/C [5]: 86 % of control | T/C (dose: 12.5 mg/kg/injection, schedule: Q04DX003 (ip), vehicle: Klucel (hydroxypropylcellulose) (HPC)): 96 % of control | T/C [6]: 86 % of control | T/C (dose: 25.0 mg/kg/injection, schedule: Q04DX003 (ip), vehicle: Klucel (hydroxypropylcellulose) (HPC)): 96 % of control | T/C [7]: 86 % of control | T/C (dose: 50.0 mg/kg/injection, schedule: Q04DX003 (ip), vehicle: Klucel (hydroxypropylcellulose) (HPC)): 89 % of control | T/C (dose: 100.0 mg/kg/injection, schedule: Q04DX003 (ip), vehicle: Klucel (hydroxypropylcellulose) (HPC)): 88 % of control

Cc1cc(=O)[nH]c(N/N=C/c2ccc(N(C)C)cc2)n1
T/C [1]: 100 % of control | T/C (dose: 200.0 mg/kg/injection, schedule: Q01DX009 (ip), vehicle: saline with Tween-80): 95 % of control | T/C (dose: 400.0 mg/kg/injection, schedule: Q01DX009 (ip), vehicle: saline with Tween-80): 97 % of control

O=C1C=CC(=O)c2c(O)c(CBr)c(CBr)c(O)c21
T/C (dose: 6.25 mg/kg/injection, schedule: Q01DX009 (ip), vehicle: Klucel (hydroxypropylcellulose) (HPC)): 102 % of control | T/C [5]: 101 % of control | T/C [6]: 100 % of control | T/C [7]: 94 % of control

C=CCN1/C(=C/C=C\c2sc3ccccc3[n+]2CC=C)Sc2ccccc21
T/C (dose: 0.06 mg/kg/injection, schedule: Q01DX009 (ip), vehicle: saline with Tween-80): 100 % of control | T/C (dose: 0.13 mg/kg/injection, schedule: Q01DX009 (ip), vehicle: saline with Tween-80): 97 % of control | T/C (dose: 0.25 mg/kg/injection, schedule: Q01DX009 (ip), vehicle: saline with Tween-80): 97 % of control | T/C (dose: 0.5 mg/kg/injection, schedule: Q01DX009 (ip), vehicle: saline with Tween-80): 95 % of control

CN(Cc1cnc2nc(N)nc(N)c2n1)c1ccc(C(=O)NC(CCC(=O)O)C(=O)O)cc1Br (centres undefined)
T/C (dose: 0.17 mg/kg/injection, schedule: Q01DX011 (ip), vehicle: saline): 101 % of control | T/C (dose: 0.35 mg/kg/injection, schedule: Q01DX011 (ip), vehicle: saline): 105 % of control | T/C (dose: 0.63 mg/kg/injection, schedule: Q01DX009 (ip), vehicle: other): 101 % of control | T/C (dose: 0.7 mg/kg/injection, schedule: Q01DX011 (ip), vehicle: saline): 101 % of control | T/C (dose: 1.25 mg/kg/injection, schedule: Q01DX009 (ip), vehicle: other): 113 % of control
